In BindingDB's records for doi:10.1021/np0604580 (University of California - San Diego, 2007):

Biological target: T1, Ornithine decarboxylase (Homo sapiens, UniProt P11926)
T1 sequence (P11926 whole entry): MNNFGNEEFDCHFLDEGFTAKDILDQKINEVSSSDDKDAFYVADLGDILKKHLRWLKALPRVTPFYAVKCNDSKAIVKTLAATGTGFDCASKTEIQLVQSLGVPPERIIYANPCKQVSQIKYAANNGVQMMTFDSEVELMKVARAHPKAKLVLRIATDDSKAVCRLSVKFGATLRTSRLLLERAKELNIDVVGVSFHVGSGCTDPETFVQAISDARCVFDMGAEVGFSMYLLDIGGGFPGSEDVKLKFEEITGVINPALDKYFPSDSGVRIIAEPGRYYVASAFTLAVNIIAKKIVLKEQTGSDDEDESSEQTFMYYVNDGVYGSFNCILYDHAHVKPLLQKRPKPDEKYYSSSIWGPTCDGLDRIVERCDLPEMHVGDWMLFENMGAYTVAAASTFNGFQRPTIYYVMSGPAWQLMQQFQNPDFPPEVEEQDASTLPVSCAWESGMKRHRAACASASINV
Experiment: Inhibition of TPA-induced ornithine decarboxylase expressed in T24 cells

## C/C(=C/C=C/[C@H](C)[C@H](O)[C@@H](C)[C@@H](O)[C@@H](C)[C@@H]1O[C@@]2(C)CC[C@@H](O2)[C@H]1C)C(N)=O [SALINIKETAL A]
  IC50: 5.05 µM

## C[C@H]([C@H](O)[C@H](C)[C@@H](O)[C@@H](C)/C=C/C=C(/CO)C(N)=O)[C@@H]1O[C@@]2(C)CC[C@@H](O2)[C@H]1C [SALINIKETAL B]
  IC50: 18.9 µM
